Converted amounts (≈) assume the structure as drawn. Where a SMILES comes first, the peptide text is derived from it. Bridges are numbered along the chain shown (N, C = ends). [ ]: non-standard residue; d: D form. aThr = C[C@H](O)[C@H](N)C(=O)O
Experiments:
[1] = Hemolytic activity in human type A RBC assessed as concentration required to cause 11% hemolysis after 1 hr by microtitre plate; format: ADME, cell-based; details: erythrocyte
Klebsiella oxytoca = test: Antimicrobial activity against Klebsiella oxytoca ATCC 49131; format: functional
[2] = Hemolytic activity in human type A RBC; format: ADME, cell-based, Erythrocyte; details: human type A red blood cells, read-out: HD50 (the source's name)
Kluyveromyces marxianus = test: Antimicrobial activity against Candida kefyr ATCC 37095; format: functional
Candida tropicalis = test: Antimicrobial activity against Candida tropicalis ATCC 37097; format: functional
Escherichia coli = test: Antimicrobial activity against Escherichia coli ATCC 25922; format: functional
Pseudomonas aeruginosa = test: Antimicrobial activity against Pseudomonas aeruginosa ATCC 27853; format: functional
Proteus vulgaris = test: Antimicrobial activity against Proteus vulgaris ATCC 49132; format: functional
Staphylococcus aureus = test: Antimicrobial activity against Staphylococcus aureus ATCC 29213; format: functional
U-937 = test: Cytotoxicity against human vincristine-resistant U937 cells after 72 hrs by fluorometric microculture cytotoxicity assay; format: functional, cell-based; details: U-937, 72 h
[3] = Cytotoxicity against human 8226/DOX40 cells after 72 hrs by fluorometric microculture cytotoxicity assay; format: functional, cell-based
CCRF-CEM = test: Cytotoxicity against human CCRF-CEM cells after 72 hrs by fluorometric microculture cytotoxicity assay; format: functional, cell-based
[4] = Cytotoxicity against human 8226/LR-5 cells after 72 hrs by fluorometric microculture cytotoxicity assay; format: functional, cell-based
ACHN = test: Cytotoxicity against human ACHN cells after 72 hrs by fluorometric microculture cytotoxicity assay; format: functional, cell-based
RPMI-8226 = test: Cytotoxicity against human RPMI8226/S cells after 72 hrs by fluorometric microculture cytotoxicity assay; format: functional, cell-based
[5] = Cytotoxicity against human CEM/VM1 cells after 72 hrs by fluorometric microculture cytotoxicity assay; format: functional, cell-based; details: CEM-VM1, 72 h
U-937/GTB = test: Cytotoxicity against human U937/GTB cells after 72 hrs by fluorometric microculture cytotoxicity assay; format: functional, cell-based
R1 = test: Cytotoxicity against mouse R1 cells after 72 hrs by fluorometric microculture cytotoxicity assay; format: cell-based; details: R1, 72 h
[6] = Hemolytic activity in human RBC; format: ADME, cell-based, Erythrocyte; details: human red blood cells, read-out: HD50 (the source's name)
[7] = tested on: Human immunodeficiency virus 1; test: Antiviral activity against HIV1 infected in human CEM-SS cells assessed as protection against virus-induced cytopathic effect by XTT method; format: functional, organism-based; details: Human immunodeficiency virus 1, CEM-SS
CEM-SS (Homo sapiens) = test: Cytotoxicity against human CEM-SS cells

CC[C@H](C)[C@@H]1NC(=O)[C@@H]2CCCN2C(=O)[C@H](Cc2ccc(O)cc2)NC(=O)[C@H](CO)NC(=O)[C@@H]2CSSC[C@@H]3NC(=O)[C@H]([C@@H](C)O)NC(=O)[C@H](CCC(=O)O)NC(=O)CNC(=O)[C@@H]4CSSC[C@H](NC(=O)CNC(=O)[C@@H]5CCCN5C(=O)[C@H]([C@@H](C)O)NC(=O)[C@H](Cc5ccc(O)cc5)NC(=O)[C@H](CSSC[C@H](NC1=O)C(=O)N[C@@H](CCCCN)C(=O)N[C@@H](CCCCN)C(=O)N[C@@H](CC(N)=O)C(=O)NCC(=O)N[C@@H](CC(C)C)C(=O)N[C@@H](C(C)C)C(=O)N1CCC[C@H]1C(=O)N4)NC(=O)[C@H](CCCCN)NC(=O)CNC(=O)[C@H]([C@@H](C)O)NC(=O)[C@H](Cc1ccccc1)NC3=O)C(=O)N[C@@H](CO)C(=O)N2 [CYCLOVIOLACIN O15] (cyclo(CFTGKCYTPGCSCSYPICKKNGLVPCGET); disulfide 1-13, 6-18, 11-26)
Activity [1]: 25 µM

CC[C@H](C)[C@@H]1NC(=O)[C@H](CO)NC(=O)CNC(=O)[C@H](CC(N)=O)NC(=O)[C@H](CCCCN)NC(=O)[C@H](C)NC(=O)[C@@H]2CSSC[C@@H]3NC(=O)[C@H](CCCCN)NC(=O)CNC(=O)[C@H](C)NC(=O)[C@H](Cc4ccccc4)NC(=O)[C@@H]4CSSC[C@H](NC(=O)[C@H](CO)NC(=O)[C@H](CSSC[C@H](NC(=O)[C@H](C)NC(=O)[C@@H]5CCCN5C1=O)C(=O)NCC(=O)N[C@@H](CCC(=O)O)C(=O)N[C@@H](CO)C(=O)N4)NC(=O)CNC(=O)[C@@H]1CCCN1C(=O)[C@H]([C@@H](C)O)NC(=O)[C@H](Cc1ccc(O)cc1)NC3=O)C(=O)N[C@@H](CO)C(=O)N[C@@H](CCCCN)C(=O)N[C@@H](Cc1ccc(O)cc1)C(=O)N1CCC[C@H]1C(=O)N[C@@H](CC(C)C)C(=O)N2 [CYCLOVIOLACIN O14] (cyclo(ACGESCFAGKCYTPGCSCSKYPLCAKNGSIP); disulfide 2-16, 6-18, 11-24)
Activity [1]: 25 µM

CC[C@H](C)[C@@H]1NC(=O)[C@@H]2CCCN2C(=O)[C@H](CS)NC(=O)CNC(=O)[C@H](CCC(=O)O)NC(=O)[C@H](CO)NC(=O)[C@H](CS)NC(=O)[C@H](C(C)C)NC(=O)[C@H](Cc2ccccc2)NC(=O)[C@H]([C@@H](C)CC)NC(=O)[C@@H]2CCCN2C(=O)[C@H](CS)NC(=O)[C@H]([C@H](C)O)NC(=O)[C@H](C(C)C)NC(=O)[C@H]([C@H](C)O)NC(=O)[C@H](C)NC(=O)[C@H](CC(C)C)NC(=O)[C@H](CC(C)C)NC(=O)CNC(=O)[C@H](CS)NC(=O)[C@H](CO)NC(=O)[C@H](CS)NC(=O)[C@H](CCCCN)NC(=O)[C@H](CO)NC(=O)[C@H](CCCCN)NC(=O)[C@H](C(C)C)NC(=O)[C@H](CS)NC(=O)[C@H](Cc2ccc(O)cc2)NC(=O)[C@H](CCCCN)NC(=O)[C@H](CC(N)=O)NC(=O)[C@H](CO)NC1=O [CYCLOPSYCHOTRIDE A] (cyclo(A[aThr]V[aThr]CPIFVCSEGCPISNKYCVKSKCSCGLL))
MIC (Klebsiella oxytoca): 5.8 µM (≈ 18.8 µg/mL)
HC50 [2]: 405 µM
MIC (Kluyveromyces marxianus): 14 µM (≈ 45.3 µg/mL)
MIC (Candida tropicalis): 56.5 µM (≈ 183 µg/mL)
MIC (Escherichia coli): 1.55 µM (≈ 5.02 µg/mL)
MIC (Pseudomonas aeruginosa): 13.5 µM (≈ 43.7 µg/mL)
MIC (Proteus vulgaris): 13.2 µM (≈ 42.7 µg/mL)
MIC (Staphylococcus aureus): 39 µM (≈ 126 µg/mL)

CC[C@H](C)[C@@H]1NC(=O)[C@@H]2CCCN2C(=O)[C@H](C(C)C)NC(=O)CNC(=O)[C@H](CC(N)=O)NC(=O)[C@H](CCCNC(=N)N)NC(=O)[C@H]([C@@H](C)O)NC(=O)[C@@H]2CSSC[C@@H]3NC(=O)[C@H]([C@@H](C)O)NC(=O)CNC(=O)[C@H](CC(C)C)NC(=O)[C@H]([C@@H](C)O)NC(=O)[C@@H]4CSSC[C@H](NC(=O)[C@H](CO)NC(=O)[C@H](CSSC[C@H](NC1=O)C(=O)NCC(=O)N[C@@H](CCC(=O)O)C(=O)N[C@@H]([C@@H](C)O)C(=O)N4)NC(=O)CNC(=O)[C@H](C)NC(=O)[C@H]([C@@H](C)O)NC(=O)[C@H](Cc1ccc(O)cc1)NC3=O)C(=O)N[C@@H](CO)C(=O)N[C@@H](Cc1c[nH]c3ccccc13)C(=O)N1CCC[C@H]1C(=O)N[C@@H](C(C)C)C(=O)N2 (cyclo(AGCSCSWPVCTRNGVPICGETCTLGTCYT); disulfide 3-18, 5-22, 10-27)
IC50 (U-937): 2630 nM
IC50 [3]: 2630 nM
IC50 (CCRF-CEM): 2630 nM
IC50 [4]: 2630 nM
IC50 (ACHN): 2630 nM
IC50 (RPMI-8226): 2630 nM
IC50 [5]: 2630 nM
IC50 (U-937/GTB): 2630 nM
IC50 (R1): 2630 nM

CC(C)C[C@@H]1NC(=O)CNC(=O)[C@H](CC(N)=O)NC(=O)[C@H](C)NC(=O)[C@H]([C@@H](C)O)NC(=O)[C@@H]2CSSC[C@@H]3NC(=O)[C@H]([C@@H](C)O)NC(=O)CNC(=O)CNC(=O)[C@H](C(C)C)NC(=O)[C@@H]4CSSC[C@H](NC(=O)[C@H](CO)NC(=O)[C@H](CSSC[C@H](NC(=O)[C@H](C(C)C)NC(=O)[C@@H]5CCCN5C1=O)C(=O)NCC(=O)N[C@@H](CCC(=O)O)C(=O)N[C@@H]([C@@H](C)O)C(=O)N4)NC(=O)CNC(=O)[C@@H]1CCCN1C(=O)[C@H]([C@@H](C)O)NC(=O)[C@H](CC(N)=O)NC3=O)C(=O)N[C@@H](CO)C(=O)N[C@@H](CCCNC(=N)N)C(=O)N1CCC[C@H]1C(=O)N[C@@H](C(C)C)C(=O)N2 [VIOLAPEPTIDE 1]
HC50 [6]: 50 µM

CC[C@H](C)[C@@H]1NC(=O)[C@H](CCSC)NC(=O)[C@H](C)NC(=O)[C@@H]2CSSC[C@@H]3NC(=O)[C@H](CO)NC(=O)[C@@H]4CSSC[C@H](NC(=O)[C@H](CO)NC(=O)[C@H]([C@@H](C)CC)NC(=O)[C@H](CO)NC(=O)[C@H](CC(N)=O)NC(=O)[C@H](CC(C)C)NC(=O)[C@H](Cc5ccc(O)cc5)NC(=O)[C@H](CSSC[C@H](NC(=O)[C@H](Cc5ccccc5)NC(=O)[C@H](CO)NC1=O)C(=O)N[C@@H](Cc1ccccc1)C(=O)N[C@@H]([C@@H](C)O)C(=O)N[C@@H](CCC(=O)O)C(=O)N[C@@H](C(C)C)C(=O)N[C@@H]([C@@H](C)CC)C(=O)NCC(=O)N4)NC(=O)[C@H](C(C)C)NC(=O)[C@H](CCCCN)NC(=O)[C@H](CC(N)=O)NC(=O)[C@H](CCCCN)NC3=O)C(=O)NCC(=O)N[C@@H](CCC(=O)O)C(=O)N[C@@H](CO)C(=O)N2 (cyclo(AMISFCFTEVIGCSCKNKVCYLNSISCGESC); disulfide 6-20, 13-27, 15-31)
EC50 [7]: 870 nM

CC[C@H](C)[C@@H]1NC(=O)[C@@H]2CSSC[C@@H]3NC(=O)[C@H](C(C)C)NC(=O)[C@H](CCCCN)NC(=O)[C@H](CC(N)=O)NC(=O)[C@H](CCCCN)NC(=O)[C@@H]4CSSC[C@H](NC(=O)[C@H](CO)NC(=O)[C@H](CCC(=O)O)NC(=O)CNC(=O)[C@H](CSSC[C@H](NC(=O)CNC(=O)[C@H](CC(C)C)NC(=O)[C@H](CC(C)C)NC(=O)[C@H]([C@@H](C)O)NC(=O)[C@H](CO)NC1=O)C(=O)N[C@@H](CO)C(=O)N4)NC(=O)[C@@H]1CCCN1C(=O)[C@H]([C@@H](C)CC)NC(=O)[C@H](C(C)C)NC(=O)CNC(=O)[C@H](CC(N)=O)NC(=O)[C@H](CCCNC(=N)N)NC(=O)[C@H](Cc1ccc(O)cc1)NC3=O)C(=O)N[C@@H](C(C)C)C(=O)N[C@@H](Cc1ccccc1)C(=O)N[C@@H]([C@@H](C)CC)C(=O)N1CCC[C@H]1C(=O)N2 [CIRCULIN B] (cyclo(CGESCVFIPCISTLLGCSCKNKVCYRNGVIP); disulfide 1-17, 5-19, 10-24)
MIC (Klebsiella oxytoca): 8.2 µM (≈ 26.9 µg/mL)
HC50 [2]: 550 µM
MIC (Kluyveromyces marxianus): 29 µM (≈ 95.2 µg/mL)
MIC (Escherichia coli): 0.41 µM (≈ 1.35 µg/mL)
MIC (Pseudomonas aeruginosa): 25.5 µM (≈ 83.7 µg/mL)
MIC (Proteus vulgaris): 6.8 µM (≈ 22.3 µg/mL)
IC50 (CEM-SS (Homo sapiens)): 500 nM
MIC (Staphylococcus aureus): 13.5 µM (≈ 44.3 µg/mL)
IC50 (R1): 820000 nM

CC(C)C[C@@H]1NC(=O)CNC(=O)[C@H](CC(N)=O)NC(=O)[C@H](CCCNC(=N)N)NC(=O)[C@H]([C@@H](C)O)NC(=O)[C@@H]2CSSC[C@@H]3NC(=O)[C@H]([C@@H](C)O)NC(=O)CNC(=O)CNC(=O)[C@H](C(C)C)NC(=O)[C@@H]4CSSC[C@H](NC(=O)[C@H](CO)NC(=O)[C@H](CSSC[C@H](NC(=O)[C@H](C(C)C)NC(=O)[C@@H]5CCCN5C1=O)C(=O)NCC(=O)N[C@@H](CCC(=O)O)C(=O)N[C@@H]([C@@H](C)O)C(=O)N4)NC(=O)CNC(=O)[C@@H]1CCCN1C(=O)[C@H]([C@@H](C)O)NC(=O)[C@H](CC(N)=O)NC3=O)C(=O)N[C@@H](CO)C(=O)N[C@@H](Cc1c[nH]c3ccccc13)C(=O)N1CCC[C@H]1C(=O)N[C@@H](C(C)C)C(=O)N2
HC50 [6]: 50 µM
IC50 (U-937): 2730 nM
IC50 [3]: 2730 nM
IC50 (CCRF-CEM): 2730 nM
IC50 [4]: 2730 nM
IC50 (ACHN): 2730 nM
IC50 (RPMI-8226): 2730 nM
IC50 [5]: 2730 nM
IC50 (U-937/GTB): 2730 nM
IC50 (R1): 2730 nM

Reference: ChEMBL document CHEMBL1799917, “Isolation, sequencing, and structure-activity relationships of cyclotides” (J Nat Prod, 2010)
